Values of other authors in US20190161439A1, “MARINE SESSILE ORGANISM-REPELLING COMPOSITION” (BASSERU CHEMICAL CO., LTD., priority 2015, published 2019).

Tested on: Barnacle
Details: reported values

Row | concentration corresponding to the 50% adhesion inhibition rate to Barnacle (EC50) | Structure (SMILES)
1 | 0.0084 µg/mL | CC(=O)O[C@H]1CC[C@](C)(C#N)CC1 [AF-034]
2 | 0.03 µg/mL | [C-]#[N+]C(C)(C)CCCCCCCCC=C [AF-035]
